From patent publication US20180291335A1, “MODIFIED POLYNUCLEOTIDES FOR ALTERING CELL PHENOTYPE” (ModernaTX, Inc., priority 2012, published 2018)

Test system: human embryonic kidney 293 (HEK293) cells
Assay: Cytotoxicity of NTPs, CYTO TOX-GLO assay
Type: cell-based
Description: The cytotoxicity of natural and modified nucleoside triphosphates (NTPs) alone or in combination with other bases, was analyzed in human embryonic kidney 293 (HEK293) cells in the absence of transfection reagent. […] 10 ul of the NTPs outlined in Table 12 were combined with 10 ul of lipid dilution and incubated for 30 minutes to form a complex before 80 ul of the HEK293 cell suspension was added to the NTP complex.
Natural and modified NTPs were transfected at a concentration of 2.1 nM, 21 nM, 210 nM, 2.1 um, 21 uM, 210 um or 2.1 mM. NTPs in combination were transfected at a total concentration of NTPs of 8.4 nM, 84 nM, 840 nM, 8.4 uM, 84 uM, 840 uM and 8.4 mM. […] The cytotoxicity of the NTPs and the modified G-CSF mRNA was assayed at 4, 24, 48 and 72 hours post addition to the HEK293 cells using a CYTO TOX-GLO™ assay from Promega (Madison, Wis.) following the manufacturer protocol except pippeting was used for lysing the cells instead of shaking the plates.

Cc1c[nH]c(=O)nc1N [5-methyl cytosine]
percent of viable cells (human, 4 h, 2.1 nM): 92.23%
percent of viable cells (human, 4 h, 21 nM): 91.40%
percent of viable cells (human, 4 h, 210 nM): 92.31%
percent of viable cells (human, 4 h, 2.1 uM): 91.31%
percent of viable cells (human, 4 h, 21 uM): 91.16%
percent of viable cells (human, 4 h, 210 uM): 91.54%
percent of viable cells (human, 4 h, 2.1 mM): 92.01%
percent of viable cells (human, 24 h, 2.1 nM): 86.35%
percent of viable cells (human, 24 h, 21 nM): 86.37%
percent of viable cells (human, 24 h, 210 nM): 84.71%
percent of viable cells (human, 24 h, 2.1 uM): 85.14%
percent of viable cells (human, 24 h, 21 uM): 84.72%
percent of viable cells (human, 24 h, 210 uM): 85.76%
percent of viable cells (human, 24 h, 2.1 mM): 87.97%
percent of viable cells (human, 48 h, 2.1 nM): 88.18%
percent of viable cells (human, 48 h, 21 nM): 87.10%
percent of viable cells (human, 48 h, 210 nM): 86.44%
percent of viable cells (human, 48 h, 2.1 uM): 86.18%
percent of viable cells (human, 48 h, 21 uM): 85.74%
percent of viable cells (human, 48 h, 210 uM): 85.94%
percent of viable cells (human, 48 h, 2.1 mM): 87.29%
percent of viable cells (human, 72 h, 2.1 nM): 91.93%
percent of viable cells (human, 72 h, 21 nM): 92.10%
percent of viable cells (human, 72 h, 210 nM): 89.97%
percent of viable cells (human, 72 h, 2.1 uM): 90.92%
percent of viable cells (human, 72 h, 21 uM): 92.26%
percent of viable cells (human, 72 h, 210 uM): 88.10%
percent of viable cells (human, 72 h, 2.1 mM): 96.08%

Adenine
percent of viable cells (HEK293, individual NTP 2.1 nM, 4 hr): 93.48%
percent of viable cells (HEK293, individual NTP 2.1 nM, 24 hr): 86.44%
percent of viable cells (HEK293, individual NTP 2.1 nM, 48 hr): 92.12%
percent of viable cells (HEK293, individual NTP 2.1 nM, 72 hr): 95.74%
percent of viable cells (HEK293, individual NTP 21 nM, 4 hr): 93.21%
percent of viable cells (HEK293, individual NTP 21 nM, 24 hr): 87.19%
percent of viable cells (HEK293, individual NTP 21 nM, 48 hr): 91.13%
percent of viable cells (HEK293, individual NTP 21 nM, 72 hr): 93.88%
percent of viable cells (HEK293, individual NTP 210 nM, 4 hr): 90.36%
percent of viable cells (HEK293, individual NTP 210 nM, 24 hr): 86.94%
percent of viable cells (HEK293, individual NTP 210 nM, 48 hr): 89.17%
percent of viable cells (HEK293, individual NTP 210 nM, 72 hr): 92.22%
percent of viable cells (HEK293, individual NTP 2.1 uM, 4 hr): 90.23%
percent of viable cells (HEK293, individual NTP 2.1 uM, 24 hr): 86.81%
percent of viable cells (HEK293, individual NTP 2.1 uM, 48 hr): 89.80%
percent of viable cells (HEK293, individual NTP 2.1 uM, 72 hr): 94.58%
percent of viable cells (HEK293, individual NTP 21 uM, 4 hr): 91.20%
percent of viable cells (HEK293, individual NTP 21 uM, 24 hr): 86.86%
percent of viable cells (HEK293, individual NTP 21 uM, 48 hr): 89.94%
percent of viable cells (HEK293, individual NTP 21 uM, 72 hr): 93.83%
percent of viable cells (HEK293, individual NTP 210 uM, 4 hr): 85.97%
percent of viable cells (HEK293, individual NTP 210 uM, 24 hr): 87.31%
percent of viable cells (HEK293, individual NTP 210 uM, 48 hr): 90.55%
percent of viable cells (HEK293, individual NTP 210 uM, 72 hr): 94.81%
percent of viable cells (HEK293, individual NTP 2.1 mM, 4 hr): 90.03%
percent of viable cells (HEK293, individual NTP 2.1 mM, 24 hr): 88.42%
percent of viable cells (HEK293, individual NTP 2.1 mM, 48 hr): 93.71%
percent of viable cells (HEK293, individual NTP 2.1 mM, 72 hr): 97.49%
